From ChEMBL document CHEMBL3882389, “Phosphatidylinositol 3-Kinase Inhibitors for the Treatment of Lymphoproliferative Malignancies” (2014)
The source made the active and inactive calls. The rule behind the calls is not given here.

Assays:
Homo sapiens [1] = assay: In vivo inhibition of PI3K in tumor tissue of po dosed solid tumor patient administered once daily; assay type: functional, organism-based
[2] = Toxicity in patient with chronic lymphocytic leukemia and lymphoma assessed as incidence of rash at 600 mg, po qd for 21 days co-administered with paclitaxel and carboplatin during phase 1 open label non-randomized trial relative to control; assay type: organism-based; conditions: human, in vivo, 504 h
[3] = Toxicity in patient with chronic lymphocytic leukemia and lymphoma assessed as incidence of grade more than equal 3 anemia at 600 mg, po qd for 21 days co-administered with paclitaxel and carboplatin during phase 1 open label non-randomized trial relative to control; assay type: organism-based; conditions: human, in vivo, 504 h
[4] = Toxicity in po dosed patient with chronic lymphocytic leukemia and lymphoma assessed as induction of grade 3 rash at 600 mg, po administered once daily for continuous 21 days; assay type: organism-based; conditions: human, in vivo, 504 h
[5] = Toxicity in patient with chronic lymphocytic leukemia and lymphoma assessed as incidence of grade more than equal 3 neutrophenia at 600 mg, po qd for 21 days co-administered with paclitaxel and carboplatin during phase 1 open label non-randomized trial relative to control; assay type: organism-based; conditions: human, in vivo, 504 h
[6] = Toxicity in patient with chronic lymphocytic leukemia and lymphoma assessed as incidence of abdominal pain at 600 mg, po qd for 21 days during phase 1 open label non-randomized trial relative to control; assay type: organism-based, Abdomen; conditions: human, in vivo, 504 h
[7] = Toxicity in patient with chronic lymphocytic leukemia and lymphoma assessed as incidence of rash at 600 mg, po qd for 21 days during phase 1 open label non-randomized trial relative to control; assay type: organism-based; conditions: human, in vivo, 504 h
[8] = Toxicity in po dosed patient with chronic lymphocytic leukemia and lymphoma assessed as induction of grade 3 hypersensitivity at 600 mg, po administered once daily for 21 days followed by 7 days rest; assay type: organism-based; conditions: human, in vivo
[9] = Toxicity in patient with chronic lymphocytic leukemia and lymphoma assessed as incidence of fatigue at 600 mg, po qd for 21 days co-administered with paclitaxel and carboplatin during phase 1 open label non-randomized trial relative to control; assay type: organism-based; conditions: human, in vivo, 504 h
Homo sapiens [10] = assay: In vivo inhibition of PI3K in PBMC of po dosed solid tumor patient administered once daily; assay type: functional, organism-based
[11] = Toxicity in patient with chronic lymphocytic leukemia and lymphoma assessed as incidence of cough at 600 mg, po qd for 21 days co-administered with paclitaxel and carboplatin during phase 1 open label non-randomized trial relative to control; assay type: organism-based; conditions: human, in vivo, 504 h
[12] = Toxicity in patient with chronic lymphocytic leukemia and lymphoma assessed as incidence of grade more than equal 3 abdominal pain at 600 mg, po qd for 21 days co-administered with paclitaxel and carboplatin during phase 1 open label non-randomized trial relative to control; assay type: organism-based, Abdomen; conditions: human, in vivo, 504 h
[13] = Toxicity in po dosed patient with chronic lymphocytic leukemia and lymphoma assessed as induction of grade 3 rash at 600 mg, po administered once daily for 21 days followed by 7 days rest; assay type: organism-based; conditions: human, in vivo
[14] = Toxicity in patient with chronic lymphocytic leukemia and lymphoma assessed as incidence of grade more than equal 3 pruritus at 600 mg, po qd for 21 days co-administered with paclitaxel and carboplatin during phase 1 open label non-randomized trial relative to control; assay type: organism-based; conditions: human, in vivo, 504 h
[15] = Toxicity in patient with chronic lymphocytic leukemia and lymphoma assessed as incidence of dyspnea at 600 mg, po qd for 21 days during phase 1 open label non-randomized trial relative to control; assay type: organism-based; conditions: human, in vivo, 504 h
[16] = Toxicity in patient with chronic lymphocytic leukemia and lymphoma assessed as incidence of grade more than equal 3 fatigue at 600 mg, po qd for 21 days during phase 1 open label non-randomized trial relative to control; assay type: organism-based; conditions: human, in vivo, 504 h
[17] = Toxicity in patient with chronic lymphocytic leukemia and lymphoma assessed as incidence of hyperglycemia at 600 mg, po qd for 21 days co-administered with paclitaxel and carboplatin during phase 1 open label non-randomized trial relative to control; assay type: organism-based; conditions: human, in vivo, 504 h
[18] = Toxicity in patient with chronic lymphocytic leukemia and lymphoma assessed as incidence of diarrhea at 600 mg, po qd for 21 days co-administered with paclitaxel and carboplatin during phase 1 open label non-randomized trial relative to control; assay type: organism-based; conditions: human, in vivo, 504 h
[19] = Toxicity in patient with chronic lymphocytic leukemia and lymphoma assessed as incidence of dyspnea at 600 mg, po qd for 21 days co-administered with paclitaxel and carboplatin during phase 1 open label non-randomized trial relative to control; assay type: organism-based; conditions: human, in vivo, 504 h
[20] = Toxicity in patient with chronic lymphocytic leukemia and lymphoma assessed as incidence of hyperglycemia at 600 mg, po qd for 21 days during phase 1 open label non-randomized trial relative to control; assay type: organism-based; conditions: human, in vivo, 504 h
[21] = Toxicity in patient with chronic lymphocytic leukemia and lymphoma assessed as incidence of grade more than equal 3 cough at 600 mg, po qd for 21 days co-administered with paclitaxel and carboplatin during phase 1 open label non-randomized trial relative to control; assay type: organism-based; conditions: human, in vivo, 504 h
[22] = Toxicity in po dosed patient with chronic lymphocytic leukemia and lymphoma assessed as induction of grade 3 hypersensitivity at 600 mg, po once daily for continuous 21 daysrest; assay type: organism-based; conditions: human, in vivo
Homo sapiens [23] = assay: In vivo inhibition of PI3K in hair follicle of po dosed solid tumor patient administered once daily; assay type: functional, organism-based
[24] = Toxicity in patient with chronic lymphocytic leukemia and lymphoma assessed as incidence of grade more than equal 3 pyrexia at 600 mg, po qd for 21 days co-administered with paclitaxel and carboplatin during phase 1 open label non-randomized trial relative to control; assay type: organism-based; conditions: human, in vivo, 504 h
[25] = Toxicity in patient with chronic lymphocytic leukemia and lymphoma assessed as incidence of diarrhea at 600 mg, po qd for 21 days during phase 1 open label non-randomized trial relative to control; assay type: organism-based; conditions: human, in vivo, 504 h
[26] = Toxicity in patient with chronic lymphocytic leukemia and lymphoma assessed as incidence of grade more than equal 3 anemia at 600 mg, po qd for 21 days during phase 1 open label non-randomized trial relative to control; assay type: organism-based; conditions: human, in vivo, 504 h
Homo sapiens [27] = assay: In vivo inhibition of PI3K in skin of po dosed solid tumor patient administered once daily; assay type: functional, organism-based
[28] = Toxicity in patient with chronic lymphocytic leukemia and lymphoma assessed as incidence of anemia at 600 mg, po qd for 21 days during phase 1 open label non-randomized trial relative to control; assay type: organism-based; conditions: human, in vivo, 504 h
[29] = Toxicity in patient with chronic lymphocytic leukemia and lymphoma assessed as incidence of cough at 600 mg, po qd for 21 days during phase 1 open label non-randomized trial relative to control; assay type: organism-based; conditions: human, in vivo, 504 h
[30] = Toxicity in patient with chronic lymphocytic leukemia and lymphoma assessed as incidence of pruritus at 600 mg, po qd for 21 days during phase 1 open label non-randomized trial relative to control; assay type: organism-based; conditions: human, in vivo, 504 h
[31] = Toxicity in patient with chronic lymphocytic leukemia and lymphoma assessed as incidence of neutrophenia at 600 mg, po qd for 21 days co-administered with paclitaxel and carboplatin during phase 1 open label non-randomized trial relative to control; assay type: organism-based; conditions: human, in vivo, 504 h
[32] = Toxicity in patient with chronic lymphocytic leukemia and lymphoma assessed as incidence of grade more than equal 3 fatigue at 600 mg, po qd for 21 days co-administered with paclitaxel and carboplatin during phase 1 open label non-randomized trial relative to control; assay type: organism-based; conditions: human, in vivo, 504 h
[33] = Toxicity in patient with chronic lymphocytic leukemia and lymphoma assessed as incidence of grade more than equal 3 dyspnea at 600 mg, po qd for 21 days co-administered with paclitaxel and carboplatin during phase 1 open label non-randomized trial relative to control; assay type: organism-based; conditions: human, in vivo, 504 h

## COc1ccc(Cl)c(Nc2nc3ccccc3nc2NS(=O)(=O)c2cccc(NC(=O)C(C)(C)N)c2)c1 [PILARALISIB]
Homo sapiens [1]
  inhibition: Active
[2]
  Activity: 3%
[3]
  Activity: 0%
[4]
  Activity: Toxic
[5]
  Activity: 4%
[6]
  Activity: 4%
[7]
  Activity: 4%
[8]
  Activity: Toxic
[9]
  Activity: 0%
Homo sapiens [10]
  inhibition: Active
[11]
  Activity: 0%
[12]
  Activity: 0%
[13]
  Activity: Toxic
[14]
  Activity: 0%
[15]
  Activity: 4%
[16]
  Activity: 0%
[17]
  Activity: 4%
[18]
  Activity: 7%
[19]
  Activity: 0%
[20]
  Activity: 4%
[21]
  Activity: 0%
[22]
  Activity: Toxic
Homo sapiens [23]
  inhibition: Active
[24]
  Activity: 0%
[25]
  Activity: 12%
[26]
  Activity: 3%
Homo sapiens [27]
  inhibition: Active
[28]
  Activity: 4%
[29]
  Activity: 6%
[30]
  Activity: 4%
[31]
  Activity: 4%
[32]
  Activity: 0%
[33]
  Activity: 0%
